The values that follow are results of earlier work, collected in patent US20220175799A1, “COMPOSITIONS HAVING THE ABILITY TO PROMOTE HEALTHY CHOLESTEROL LEVELS” (Brilliant Lab LLC, priority 2020, published 2022).

Where two headings read alike, the source gives them in different places.

Test in data set [1]: not given
This is another data set of the same source.

Test in data set [2]: not given
This is another data set of the same source.

As to `CC[C@H](C)C(=O)O[C@H]1C[C@@H](C)C=C2C=C[C@H](C)[C@H](CC[C@@H]3C[C@@H](O)CC(=O)O3)[C@H]21` [Lovastatin], the “Reduction in LDL-C levels” value is given as 39.4434 mg/dL (statin daily oral dose 10 mg), 54.138 mg/dL (statin daily oral dose 20 mg), 68.4459 mg/dL (statin daily oral dose 40 mg) and 83.1405 mg/dL (statin daily oral dose 80 mg). Further, the “% LDL-C Reduction” value is on record as 20% in data set [1] (statin dose 10 mg), 26% in data set [1] (statin dose 20 mg), 30% in data set [1] (statin dose 40 mg) and 38% in data set [1] (statin dose 80 mg).

`CC(C)c1nc(N(C)S(C)(=O)=O)nc(-c2ccc(F)cc2)c1/C=C/[C@@H](O)C[C@@H](O)CC(=O)O` [Rosuvastatin]: the “Reduction in LDL-C levels” value (statin daily oral dose 5 mg) was 71.1528 mg/dL; the “Reduction in LDL-C levels” value (statin daily oral dose 10 mg) is given as 80.4336 mg/dL; the “Reduction in LDL-C levels” value (statin daily oral dose 20 mg) is 89.7144 mg/dL; the “Reduction in LDL-C levels” value (statin daily oral dose 40 mg) is 98.9952 mg/dL; the “Reduction in LDL-C levels” value (statin daily oral dose 80 mg) was 108.276 mg/dL. In addition, the “% LDL-C Reduction” value in data set [1] (statin dose 5 mg) is on record as 44%; in data set [1] (statin dose 10 mg), 52%; in data set [1] (statin dose 20 mg) it was 56%; in data set [1] (statin dose 40 mg) it was 63%.

As for `COc1ccc2cc3[n+](cc2c1OC)CCc1cc2c(cc1-3)OCO2` [berberine], in data set [2] (1 g daily), the “reduction of LDL-cholesterol in subjects” value is listed as around 16.4% and the “reduction of total cholesterol in subjects” value is “about 11.6%”.

For the molecule `CC(C)=CCC/C(C)=C/C=C/C(C)=C/C=C/C(C)=C/C=C/C=C(C)/C=C/C=C(C)/C=C/C=C(\C)CCC=C(C)C` [lycopene], the “reduction of LDL-cholesterol in subjects” value in data set [2] (22 mg daily) is given as “about 3.7 mg/dl”.

As for `CC(C)c1c(C(=O)Nc2ccccc2)c(-c2ccccc2)c(-c2ccc(F)cc2)n1CC[C@@H](O)C[C@@H](O)CC(=O)O` [Atorvastatin], the “Reduction in LDL-C levels” value is on record as 58.3917 mg/dL (statin daily oral dose 5 mg); 69.2193 mg/dL (statin daily oral dose 10 mg); 80.0469 mg/dL (statin daily oral dose 20 mg); 91.2612 mg/dL (statin daily oral dose 40 mg); 102.0888 mg/dL (statin daily oral dose 80 mg). In addition, the “% LDL-C Reduction” value is 38% in data set [1] (statin dose 10 mg), 42% in data set [1] (statin dose 20 mg), 52% in data set [1] (statin dose 40 mg) and 60% in data set [1] (statin dose 80 mg).

`O=C(O)C[C@H](O)C[C@H](O)/C=C/c1c(C2CC2)nc2ccccc2c1-c1ccc(F)cc1` [Pitavastatin]: the “% LDL-C Reduction” value in data set [1] (statin dose 1 mg) was 30%; in data set [1] (statin dose 2 mg), 32%; in data set [1] (statin dose 4 mg), 42%.

For the molecule `CC(C)n1c(/C=C/C(O)CC(O)CC(=O)O)c(-c2ccc(F)cc2)c2ccccc21` (stereo not shown) [Fluvastatin], the “Reduction in LDL-C levels” value by setting is: (statin daily oral dose 5 mg) 17.7882 mg/dL; (statin daily oral dose 10 mg) 28.6158 mg/dL; (statin daily oral dose 20 mg) 39.4434 mg/dL; (statin daily oral dose 40 mg) 50.271 mg/dL; (statin daily oral dose 80 mg) 61.0986 mg/dL. The “% LDL-C Reduction” value was 20% in data set [1] (statin dose 20 mg), 24% in data set [1] (statin dose 40 mg) and 34% in data set [1] (statin dose 80 mg).
